Laboratory results reported in patent publication US9487554B2, “Estra-1,3,5(10),16-tetraene-3-carboxamide derivatives, processes for their preparation, pharmaceutical preparations comprising them and their use for preparing medicaments” (BAYER INTELLECTUAL PROPERTY GmbH, priority 2011, dated 2016).
Several values for one entry are separate records, joined by “and”; a condition that tells them apart may be missing. Identical values can stand only once.

Biological target: recombinant human AKR1C3 (Homo sapiens (Human), UniProt P42330)
Sequence (P42330 whole entry): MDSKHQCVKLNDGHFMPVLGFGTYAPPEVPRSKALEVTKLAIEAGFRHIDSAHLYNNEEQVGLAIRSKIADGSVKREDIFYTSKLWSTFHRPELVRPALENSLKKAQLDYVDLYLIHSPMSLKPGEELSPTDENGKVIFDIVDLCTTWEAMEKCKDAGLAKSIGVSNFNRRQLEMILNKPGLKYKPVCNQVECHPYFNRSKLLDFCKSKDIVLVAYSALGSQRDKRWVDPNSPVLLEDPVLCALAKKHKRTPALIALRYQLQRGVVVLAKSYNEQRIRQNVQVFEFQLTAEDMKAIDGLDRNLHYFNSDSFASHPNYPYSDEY
Assay: AKR1C3 enzyme inhibition assay (Coumberone to Coumberol fluorescence)
Format: biochemical
Conditions: individual experimental determinations
Experimental: The AKR1C3-inhibitory activity of the substances of the present invention was measured in the AKR1C3 assay described in the paragraphs below.
Essentially, the enzyme activity is measured by quantification of the Coumberol from Coumberone (Halim, M., Yee, D. J., and Sames, D., J. AM. CHEM. SOC. 130, 14123-14128 (2008) and Yee, D. J., Balsanek, V., Bauman, D. R., Penning, T. M., and Sames, D., Proc. Natl. Acad. Sci. USA 103, 13304-13309 (2006)). In this test, the increase of the highly fluorescent Coumberol by NADPH—(nicotinamide adenine dinucleotide phosphate)-dependent reduction of the non-fluorescent Coumberone by AKR1C3 can be determined.
The enzyme used was recombinant human AKR1C3 (Aldo-keto reductase family 1 member C3) (GenBank Accession No. NM_003739). This was expressed in E. coli as GST (glutathione S transferase) fusion protein and purified by glutathione Sepharose affinity chromatography. The GST was removed by digestion with thrombin and subsequent size exclusion chromatography (Dufort, I., Rheault, P., Huang, X F., Soucy, P., and Luu-The, V., Endocrinology 140, 568-574 (1999)).
For the assay, 50 nl of a 100-fold concentrated solution of the test substance in DMSO were pipetted into a black low-volume 384-well microtiter plate (Greiner Bio-One, Frickenhausen, Germany), 2.0 μl of a solution of AKR1C3 in assay buffer [50 mM potassium phosphate buffer pH 7, 1 mM DTT, 0.0022% (w/v) Pluronic F-127, 0.01% BSA (w/v) and protease inhibitor cocktail (Complete, EDTA-free Protease Inhibitor Cocktail from Roche)] were added and the mixture was incubated for 15 min to allow pre-binding of the substances to the enzyme prior to the enzyme reaction. The enzyme reaction was then started by addition of 3 μl of a solution of NADPH (16.7 μM→final concentration in 5 μl of assay volume is 10 μM) and Coumberone (0.5 μM→final concentration in 5 μl of assay volume is 0.3 μM) in assay buffer, and the resulting mixture was incubated at 22° C. for the reaction time of 90 min. The concentration of the AKR1C3 was adapted to the respective activity of the enzyme preparation and adjusted such that the assay was carried out in the linear range. Typical concentrations were in the region of 1 nM. The reaction was stopped by addition of 5 μl of a stop solution consisting of the inhibitor EM-1404 [F. Labrie et al. U.S. Pat. No. 6,541,463, 2003] (2 μM→final concentration in […] is 1 μM). The fluorescence of the Coumberole was then measured at 520 nm (excitation at 380 nm) using a suitable measuring instrument (Pherastar from BMG Labtechnologies). The intensity of the fluorescence was used as a measure of the amount of Coumberole formed and thus of the enzyme activity of AKR1C3. The data were normalized (enzyme reaction without inhibitor=0% inhibition; all other assay components, but no enzyme=100% inhibition).

Structure (SMILES)	IC50
COc1cncc(C2=CC[C@H]3[C@@H]4CCc5cc(C(=O)N(C)CCC(=O)O)ccc5[C@H]4CC[C@]23C)c1 [Example 16, N-{[17-(5-Methoxypyridin-3-yl)estra-1,3,5(10),16-tetraen-3-yl]carbonyl}-N-methyl-β-alanine]	4.4 nM and 6.9 nM
CN(CCC(=O)O)C(=O)c1ccc2c(c1)CC[C@@H]1[C@@H]2CC[C@]2(C)C(c3cncnc3)=CC[C@@H]12 [Example 19, N-Methyl-N-{[17-(pyrimidin-5-yl)estra-1,3,5(10),16-tetraen-3-yl]carbonyl}-β-alanine]	26.7 nM (2×) and 17.8 nM
C[C@]12CC[C@@H]3c4ccc(C(=O)NCCCC(=O)O)cc4CC[C@H]3[C@@H]1CC=C2c1cncnc1 [Example 18, 4-({[17-(Pyrimidin-5-yl)estra-1,3,5(10),16-tetraen-3-yl]carbonyl}amino)butanoic acid]	23.5 nM and 31.8 nM
COc1cncc(C2=CC[C@H]3[C@@H]4CCc5cc(C(=O)NCCCC(=O)O)ccc5[C@H]4CC[C@]23C)c1 [Example 30, 4-({[17-(5-Methoxypyridin-3-yl)estra-1,3,5(10),16-tetraen-3-yl]carbonyl}amino)butanoic acid]	7.3 nM and 11.2 nM
Cc1cc(C2=CC[C@H]3[C@@H]4CCc5cc(C(=O)N(C)CCC(=O)O)ccc5[C@H]4CC[C@]23C)cnn1 [Example 28, N-Methyl-N-{[17-(6-methylpyridazin-4-yl)estra-1,3,5(10),16-tetraen-3-yl]carbonyl}-β-alanine]	0.5 nM
C[C@@H](CC(=O)O)NC(=O)c1ccc2c(c1)CC[C@@H]1[C@@H]2CC[C@]2(C)C(c3cncc(F)c3)=CC[C@@H]12 [Example 12, (S)-3-({[17-(5-Fluoropyridin-3-yl)estra-1,3,5(10),16-tetraen-3-yl]carbonyl}amino)-butanoic acid]	1.2 nM and 1.7 nM
CC(C)(CNC(=O)c1ccc2c(c1)CC[C@@H]1[C@@H]2CC[C@]2(C)C(c3cncnc3)=CC[C@@H]12)C(=O)O [Example 20, 2,2-Dimethyl-3-({[17-(pyrimidin-5-yl)estra-1,3,5(10),16-tetraen-3-yl]carbonyl}amino)-propanoic acid]	45.5 nM and 46.3 nM
CN(CCC(=O)O)C(=O)c1ccc2c(c1)CC[C@@H]1[C@@H]2CC[C@]2(C)C(c3cncc(C(F)(F)F)c3)=CC[C@@H]12 [Example 22, N-Methyl-N-({17-[5-(trifluoromethyl)pyridin-3-yl]estra-1,3,5(10),16-tetraen-3-yl}carbonyl)-β-alanine]	4.2 nM
C[C@H](CC(=O)O)NC(=O)c1ccc2c(c1)CC[C@@H]1[C@@H]2CC[C@]2(C)C(c3cncc(F)c3)=CC[C@@H]12 [Example 13, (R)-3-({[17-(5-Fluoropyridin-3-yl)estra-1,3,5(10),16-tetraen-3-yl]carbonyl}amino)-butanoic acid]	0.8 nM and 1.8 nM
CN(CCC(=O)O)C(=O)c1ccc2c(c1)CC[C@@H]1[C@@H]2CC[C@]2(C)C(c3cccnc3)=CC[C@@H]12 [Example 29, N-Methyl-N-{[17-(pyridin-3-yl)estra-1,3,5(10),16-tetraen-3-yl]carbonyl}-β-alanine]	2.5 nM
C[C@]12CC[C@@H]3c4ccc(C(=O)N5CCC(C(=O)O)CC5)cc4CC[C@H]3[C@@H]1CC=C2c1cncc(F)c1 [Example 6, 1-{[17-(5-Fluoropyridin-3-yl)estra-1,3,5(10),16-tetraen-3-yl]carbonyl}piperidine-4-carboxylic acid]	21.1 nM and 21 nM
C[C@]12CC[C@@H]3c4ccc(C(=O)N[C@@H]5CCC[C@@H]5C(=O)O)cc4CC[C@H]3[C@@H]1CC=C2c1cncc(F)c1 (relative stereo) [Example 11, (1R*,2S*)-2-({[17-(5-Fluoropyridin-3-yl)estra-1,3,5(10),16-tetraen-3-yl]carbonyl}amino)-cyclopentane-1-carboxylic acid]	2.2 nM and 1.8 nM
C[C@]12CC[C@@H]3c4ccc(C(=O)NCC5(C(=O)O)CCOCC5)cc4CC[C@H]3[C@@H]1CC=C2c1cncc(F)c1 [Example 1, 4-[({[17-(5-Fluoropyridin-3-yl)estra-1,3,5(10),16-tetraen-3-yl]carbonyl}amino)methyl]-3,4,5,6-tetrahydro-2H-pyran-4-carboxylic acid]	1.4 nM and 1.9 nM
CC(C)(NC(=O)c1ccc2c(c1)CC[C@@H]1[C@@H]2CC[C@]2(C)C(c3cncc(F)c3)=CC[C@@H]12)C(=O)O [Example 7, N-{[17-(5-Fluoropyridin-3-yl)estra-1,3,5(10),16-tetraen-3-yl]carbonyl}-2-methylalanine]	8.5 nM and 9.6 nM
CN(CCC(=O)O)C(=O)c1ccc2c(c1)CC[C@H]1[C@@H]3[C@H](O)C=C(c4cncc(F)c4)[C@@]3(C)CC[C@H]21 [Example 27, N-{[17-(5-Fluoropyridin-3-yl)-15β-hydroxyestra-1,3,5(10),16-tetraen-3-yl]carbonyl}-N-methyl-β-alanine]	35.3 nM and 24.2 nM
C[C@]12CC[C@@H]3c4ccc(C(=O)NCCC(=O)O)cc4CC[C@H]3[C@@H]1CC=C2c1cncnc1 [Example 17, N-{[17-(Pyrimidin-5-yl)estra-1,3,5(10),16-tetraen-3-yl]carbonyl}-β-alanine]	29.7 nM and 37.6 nM
C[C@]12CC[C@@H]3c4ccc(C(=O)NCCCC(=O)O)cc4CC[C@H]3[C@@H]1CC=C2c1cncc(F)c1 [Example 8, 4-({[17-(5-Fluoropyridin-3-yl)estra-1,3,5(10),16-tetraen-3-yl]carbonyl}amino)butanoic acid]	8.5 nM and 6.8 nM
C[C@]12CC[C@@H]3c4ccc(C(=O)N5CCC[C@H]5C(=O)O)cc4CC[C@H]3[C@@H]1CC=C2c1cncc(F)c1 [Example 23, N-{[17-(5-Fluoropyridin-3-yl)estra-1,3,5(10),16-tetraen-3-yl]carbonyl}-L-proline]	1.9 nM
C[C@]12CC[C@@H]3c4ccc(C(=O)NCCC(=O)O)cc4CC[C@H]3[C@@H]1CC=C2c1cncc(C(F)(F)F)c1 [Example 21, N-({17-[5-(Trifluoromethyl)pyridin-3-yl]estra-1,3,5(10),16-tetraen-3-yl}carbonyl)-β-alanine]	8.5 nM
COc1cncc(C2=CC[C@H]3[C@@H]4CCc5cc(C(=O)NCC(C)(C)C(=O)O)ccc5[C@H]4CC[C@]23C)c1 [Example 14, 3-({[17-(5-Methoxypyridin-3-yl)estra-1,3,5(10),16-tetraen-3-yl]carbonyl}amino)-2,2-dimethylpropanoic acid]	9.8 nM and 17.9 nM
COc1cncc(C2=CC[C@H]3[C@@H]4CCc5cc(C(=O)NCCC(=O)O)ccc5[C@H]4CC[C@]23C)c1 [Example 15, N-{[17-(5-Methoxypyridin-3-yl)estra-1,3,5(10),16-tetraen-3-yl]carbonyl}-β-alanine]	6.9 nM and 7.2 nM
C[C@]12CC[C@@H]3c4ccc(C(=O)N5CCC[C@@H]5C(=O)O)cc4CC[C@H]3[C@@H]1CC=C2c1cncc(F)c1 [Example 24, N-{[17-(5-Fluoropyridin-3-yl)estra-1,3,5(10),16-tetraen-3-yl]carbonyl}-D-proline]	5.3 nM
C[C@]12CC[C@@H]3c4ccc(C(=O)NCC5(C(=O)O)CCCC5)cc4CC[C@H]3[C@@H]1CC=C2c1cncc(F)c1 [Example 4, 1-[({[17-(5-Fluoropyridin-3-yl)estra-1,3,5(10),16-tetraen-3-yl]carbonyl}amino)methyl]-cyclopentane-1-carboxylic acid]	13.9 nM and 8.9 nM
